Laboratory results from patent US20080032889A1, “6-(2-Fluorophenyl)-Triazolopyrimidines, Method For The Production Thereof, Use Thereof For Controlling Harmful Fungi, And Agents Containing The Same” (BASF AKTIENGESELLSCHAFT, priority 2004, published 2008).

Test system: Botrytis cinerea
Experiment: Activity against gray mold caused by Botrytis cinerea on bell pepper plants, protective application
Type: in vivo
Settings: 200 ppm, protective spray, bell pepper "California Wonder", after about 3 days; untreated plants 100% infected
Method: Comparative Experiment 1—Activity Against Gray Mold Caused by Botrytis cinerea, Protective Application Potted bell pepper plants of the cultivar “California Wonder” were sprayed to runoff point with an aqueous suspension having the active compound concentration stated below. The suspension or emulsion had been prepared by dilution with water from a stock solution comprising 5% of active compound, 94% of cyclohexanone and 1% of emulsifier (Tween 20). 2-5 hours after the spray coating had dried on, the plants were dusted with spores of gray mold (Botrytis cinerea). The test plants were then incubated in a humid chamber at temperatures between 20 and 22° C. and at 100% relative atmospheric humidity. After about 3 days, the extent of the pathogen development was determined visually in % infection of the entire leaf area.

CC(C)Nc1c(-c2ccccc2F)c(Cl)nc2ncnn12 [compound A]
infection of the entire leaf area: 90%
